Test results taken from patent US20030187007A1, “Inhibitors of protein kinase for the treatment of disease” (priority 2001, published 2003).
Where a name gives a salt, the structure may show the parent alone.

Columns and labels:
Assay type in all cases: biochemical
[1] = target: CDK2 complexed with cyclin A (Homo sapiens, UniProt P24941); experiment: Cyclin dependent kinase activity assay, phosphorylation of synthetic peptide PKTPKKAKKLRRR; settings: 0.1 mM ATP, read-out: CDK 2 Activity*
Procedure: (§1) The assay of cyclin dependent kinase activity was determined by monitoring the phosphorylation of a synthetic peptide, PKTPKKAKKLRRR. The assay mixture contained 0.1 mM cold ATP, ^33P-γ-ATP (2000-4000 cpm/μL), 0.1 mM peptide, 1 mM DTT, and 10 mM MgCl2 in 100 mM HEPES buffer pH 7.4. The assay mixture, along with inhibitor and CDK enzyme (0.3-0.4 U/mL; either CDK5 complexed with p25, CDK2 complexed with complexed with cyclin A), was mixed together in a microtiter plate in a final volume of 40 μL, sealed and incubated for 2 hours at 30° C. Following incubation, a 15 μL aliquot was added to a Whatman P81 filtration plate containing 100 μL 0.5% phosphoric acid. This mixture was allowed to stand for 5 minutes prior to filtration on a vacuum manifold. The filter plate was washed with 5 successive additions of 300 μL 0.5% phosphoric acid. The filtration plate was air dried for 10 minutes before sealing the bottom. After addition of scintillation fluid to the sealed plate, phosphorylated peptide was quantified in a scintillation counter.

[2] = target: CDK5 complexed with p25 (Homo sapiens, UniProt Q00535); experiment: as above; settings: CDK5 complexed with p25, 0.1 mM ATP; read-out: CDK 5 Activity*
Procedure: as §1

[3] = target: KDR (Homo sapiens, UniProt P35968); experiment: Enzyme assay for  (KDR), IC50 determination; settings: 50 nM KDR, 500 μM ATP
Procedure: Enzyme assays for IC50 determinations were performed in 96-well titer plates, in a total reaction volume of 50 μL. Each reaction contained 1.5 μL of appropriate dilutions of inhibitor, 50 mM Hepes, pH 7.4, 1 mM DTT, 10 mM magnesium chloride, 2 mM phospho-poly(E4Y) (Sigma Chemical Company), 500 μM unlabeled ATP, 0.0025 μM [^33P]ATP (Amersham Pharmacia Biotech), and 50 nM KDR. All components except KDR were added to the wells, and the reaction was started by the addition of the enzyme. The reactions were mixed and incubated at room temperature for 1 hr, after which the reactions were quenched by the addition of 50 μL of 8% phosphoric acid. At this point, 90 μL aliquots of the samples were applied to positively charged DEAE 96-well filter plates (Millipore Corporation MADENOB10). The plates were incubated for 30 min at room temperature. The samples were aspirated and the wells were washed 3 times with 200 μL of 0.5% phosphoric acid. To each well, 50 μL of scintillation cocktail was added and counted for 60 sec in a TopCount microplate scintillation counter (Packard Instrument Company). The concentration of a compound that inhibited the activity of KDR by 50% (IC50) was determined based its inhibition curve.

Sequence of CDK5 complexed with p25 (Q00535 whole entry): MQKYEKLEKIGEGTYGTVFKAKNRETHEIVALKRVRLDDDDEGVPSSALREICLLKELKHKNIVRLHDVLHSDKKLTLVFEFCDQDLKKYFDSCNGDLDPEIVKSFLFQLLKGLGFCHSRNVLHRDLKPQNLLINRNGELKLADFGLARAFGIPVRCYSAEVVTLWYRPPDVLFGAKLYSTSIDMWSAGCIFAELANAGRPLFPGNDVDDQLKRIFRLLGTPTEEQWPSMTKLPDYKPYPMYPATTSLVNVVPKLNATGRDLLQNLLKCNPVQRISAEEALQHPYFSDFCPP
Sequence of CDK5 complexed with p25 (Q15078 99-307 partner limits assumed): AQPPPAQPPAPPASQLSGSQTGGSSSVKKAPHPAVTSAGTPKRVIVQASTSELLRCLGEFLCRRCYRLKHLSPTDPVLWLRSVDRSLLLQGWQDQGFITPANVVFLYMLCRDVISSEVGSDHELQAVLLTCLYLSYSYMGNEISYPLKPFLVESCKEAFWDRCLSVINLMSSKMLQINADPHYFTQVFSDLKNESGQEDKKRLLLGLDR
Sequence of KDR (P35968 20-1356): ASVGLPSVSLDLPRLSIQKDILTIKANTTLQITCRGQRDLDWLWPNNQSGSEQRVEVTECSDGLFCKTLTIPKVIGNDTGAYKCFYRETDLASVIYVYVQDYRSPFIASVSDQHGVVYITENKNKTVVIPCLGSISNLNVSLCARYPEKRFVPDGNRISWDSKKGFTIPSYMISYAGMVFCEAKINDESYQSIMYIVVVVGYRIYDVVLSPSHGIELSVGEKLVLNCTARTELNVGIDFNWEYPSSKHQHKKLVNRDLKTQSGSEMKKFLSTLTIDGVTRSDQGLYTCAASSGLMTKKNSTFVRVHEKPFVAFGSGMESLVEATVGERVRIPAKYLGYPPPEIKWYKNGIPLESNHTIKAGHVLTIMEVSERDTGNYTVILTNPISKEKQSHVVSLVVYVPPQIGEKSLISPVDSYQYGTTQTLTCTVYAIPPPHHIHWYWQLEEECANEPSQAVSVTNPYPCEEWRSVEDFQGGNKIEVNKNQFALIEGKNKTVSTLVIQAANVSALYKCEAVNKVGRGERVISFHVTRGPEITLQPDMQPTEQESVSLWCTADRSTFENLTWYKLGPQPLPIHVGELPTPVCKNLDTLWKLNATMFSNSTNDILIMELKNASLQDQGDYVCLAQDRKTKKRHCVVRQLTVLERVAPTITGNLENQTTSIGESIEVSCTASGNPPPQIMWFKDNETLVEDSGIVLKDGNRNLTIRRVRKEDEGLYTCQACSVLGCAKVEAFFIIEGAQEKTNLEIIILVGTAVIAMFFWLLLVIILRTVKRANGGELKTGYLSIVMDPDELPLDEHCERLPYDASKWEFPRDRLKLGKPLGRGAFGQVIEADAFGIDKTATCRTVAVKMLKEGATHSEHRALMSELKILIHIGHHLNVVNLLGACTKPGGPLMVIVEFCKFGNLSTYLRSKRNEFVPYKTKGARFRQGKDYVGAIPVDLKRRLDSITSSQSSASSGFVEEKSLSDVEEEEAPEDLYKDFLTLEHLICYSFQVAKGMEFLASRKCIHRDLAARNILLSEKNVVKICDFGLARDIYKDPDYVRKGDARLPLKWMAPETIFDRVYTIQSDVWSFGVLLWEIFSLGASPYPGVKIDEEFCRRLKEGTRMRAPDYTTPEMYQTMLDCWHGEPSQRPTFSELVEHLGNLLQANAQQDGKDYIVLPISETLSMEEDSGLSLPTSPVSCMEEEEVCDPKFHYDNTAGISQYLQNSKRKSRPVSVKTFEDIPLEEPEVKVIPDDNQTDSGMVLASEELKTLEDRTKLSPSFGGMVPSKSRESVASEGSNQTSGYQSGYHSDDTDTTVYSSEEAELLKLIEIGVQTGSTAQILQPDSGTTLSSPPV

Row | SMILES | IC50 [1] | IC50 [2] | IC50 [3]
1 | NC(=O)N/N=C/c1cc(-c2ccc(O)cc2)ccc1O [Example 22, 5-(4-Hydroxyphenyl)salicylaldehyde semicarbazone hydrochloride] | < 500 nM | < 500 nM | 1000 to 20000 nM
2 | NC(=S)N/N=C/c1cc(-c2ccc(O)c(F)c2)ccc1O [Example 23, 5-(3-Fluoro-4-hydroxyphenyl)salicylaldehyde thiosemicarbazone] | < 500 nM | < 500 nM | 1000 to 20000 nM
3 | NC(=O)N/N=C/c1cc(-c2ccc(O)c(F)c2)ccc1O [Example 24, 5-(3-Fluoro-4-hydroxyphenyl)salicylaldehyde semicarbazone hydrochloride] | < 500 nM | < 500 nM | 1000 to 20000 nM
4 | NC(=S)N/N=C/c1cc(-c2ccc(O)c(O)c2)ccc1O [Example 25, 5-(3,4-Dihydroxyphenyl)salicylaldehyde thiosemicarbazone] | < 500 nM | < 500 nM | < 1000 nM
5 | NC(=S)N/N=C/c1cc(-c2ccc3[nH]ccc3c2)ccc1O [Example 36, 5-(5-Indolyl)salicylaldehyde thiosemicarbazone] | < 500 nM | < 500 nM | 20000 to 50000 nM
6 | Nc1nccc(-c2cc(-c3ccc(O)cc3)ccc2O)n1 [Example 57, 3-(2-Amino-pyrimidin-4-yl)-biphenyl-4,4′-diol] | < 500 nM | < 500 nM | < 1000 nM
7 | Nc1nc(N)nc(-c2cc(-c3ccc(O)cc3)ccc2O)n1 [Example 58, 3-(4.6-Diamino-[1,3,5]triazin-2-yl)-biphenyl-4,4′-diol] | < 500 nM | < 500 nM | < 1000 nM
8 | Nc1nccc(-c2cc(-c3ccc(C=O)o3)ccc2O)n1 [Example 59, 5-[3-(2-Amino-pyrimidin-4-yl)-4-hydroxy-phenyl]-furan-2-carbaldehyde] | 500 to 2000 nM | 500 to 2000 nM | < 1000 nM
9 | Nc1nccc(-c2cc(-c3ccc4[nH]ccc4c3)ccc2O)n1 [Example 60, 2-(2-Amino-pyrimidin-4-yl)-4-(1H-indol-5-yl)-phenol] | 2000 to 5000 nM | < 500 nM | < 1000 nM
10 | Nc1nc(-c2cc(-c3ccc(O)cc3)ccc2O)cs1 [Example 61, 3-(2-Amino-thiazol-4-yl)-biphenyl-4,4′-diol] | < 500 nM | < 500 nM | 1000 to 20000 nM
11 | Nc1cc(-c2ccc(O)c(-c3ccnc(N)n3)c2)ccn1 [Example 67, 4-(2-Amino-pyridin-4-yl)-2-(2-amino-pyrimidin-4-yl)-phenol] | < 500 nM |  | < 1000 nM
12 | Nc1nc(-c2cc(-c3ccc(O)cc3)ccc2O)cc(N2CCC[C@@H]2CO)n1 [Example 80, 3-[2-Amino-6-(2S-hydroxymethyl-pyrrolidin-1-yl)-pyrimidin-4-yl]-biphenyl-4,4′-diol] | < 500 nM | < 500 nM | 1000 to 20000 nM
13 | Nc1nc(-c2cc(-c3ccc(O)cc3)ccc2O)cc(N2CCOCC2)n1 [Example 81, 3-(2-Amino-6-morpholin-4-yl-pyrimidin-4-yl)-biphenyl-4,4′-diol] | < 500 nM | < 500 nM | 1000 to 20000 nM
14 | Nc1nc(-c2cc(-c3ccc(O)cc3)ccc2O)cc(-c2ccccc2CO)n1 [Example 83, 3-[2-Amino-6-(2-hydroxymethyl-phenyl)-pyrimidin-4-yl-biphenyl-4,4]-diol] | < 500 nM | < 500 nM | < 1000 nM
15 | Nc1nc(-c2cccc(CO)c2)cc(-c2cc(-c3ccc(O)cc3)ccc2O)n1 [Example 84, 3-[2-Amino-6-(3-hydroxymethyl-phenyl)-pyrimidin-4-yl]-biphenyl-4,4′-diol] | < 500 nM | < 500 nM | < 1000 nM
16 | Nc1nc(-c2ccc(CO)cc2)cc(-c2cc(-c3ccc(O)cc3)ccc2O)n1 [Example 85, 3-[2-Amino-6-(4-hydroxymethyl-phenyl)-pyrimidin-4-yl]-biphenyl-4,4′-diol] | < 500 nM | < 500 nM | < 1000 nM
17 | Nc1nc(N[C@@H](CO)Cc2ccccc2)cc(-c2cc(-c3ccc(O)cc3)ccc2O)n1 [Example 86, 3-[2-Amino-6-(1R-benzyl-2-hydroxy-ethylamino)-pyrimidin-4-yl]-biphenyl-4,4′-diol] | < 500 nM | < 500 nM | 1000 to 20000 nM
18 | Nc1nc(N[C@H](CO)Cc2ccccc2)cc(-c2cc(-c3ccc(O)cc3)ccc2O)n1 [Example 87, 3-[2-Amino-6-(1S-benzyl-2-hydroxy-ethylamino)-pyrimidin-4-yl]-biphenyl-4,4′-diol] | < 500 nM | < 500 nM | 1000 to 20000 nM

Row | SMILES | IC50 [1] | IC50 [2] | IC50 [3]
19 | Nc1nc(-c2cccc([N+](=O)[O-])c2)cc(-c2cc(-c3ccc(O)cc3)ccc2O)n1 [Example 88, 3-[2-Amino-6-(3-nitro-phenyl)-pyrimidin-4-yl]-biphenyl-4,4′-diol] | < 500 nM | < 500 nM | 1000 to 20000 nM
20 | CN1CCN(c2cc(-c3cc(-c4ccc(O)cc4)ccc3O)nc(N)n2)CC1 [Example 104, 3-[2-Amino-6-(4-methyl-piperazin-1-yl)-pyrimidin-4-yl]-biphenyl-4.4′-diol] |  |  | 1000 to 20000 nM
21 | Nc1nc(NCCN2CCOCC2)cc(-c2cc(-c3ccc(O)cc3)ccc2O)n1 [Example 105, 3-[2-Amino-6-(2-morpholin-4-yl-ethylamino)-pyrimidin-4-yl]-biphenyl-4,4′-diol] |  |  | 1000 to 20000 nM
22 | Nc1nc(NCCc2ccccn2)cc(-c2cc(-c3ccc(O)cc3)ccc2O)n1 [Example 106, 3-[2-Amino-6-(2-pyridin-2-yl-ethylamino)-pyrimidin-4-yl]-biphenyl-4,4′-diol] |  |  | < 1000 nM
23 | Nc1nc(-c2cc(-c3ccc(O)cc3)ccc2O)cc(N2CCSCC2)n1 [Example 107, 3-(2-Amino-6-thiomorpholin-4-yl-pyrimidin-4-yl)-biphenyl-4,4′-diol] |  |  | 1000 to 20000 nM
24 | Nc1nc(NCc2ccccc2-c2ccccc2)cc(-c2cc(-c3ccc(O)cc3)ccc2O)n1 [Example 108, 3-{2-Amino-6-[(biphenyl-2-ylmethyl)-amino]-pyrimidin-4-yl}-biphenyl-4,4′-diol] |  |  | < 1000 nM
25 | Nc1nc(Nc2cccc(Cl)c2)cc(-c2cc(-c3ccc(O)cc3)ccc2O)n1 [Example 109, 3-[2-Amino-6-(3-chloro-phenylamino)-pyrimidin-4-yl]-biphenyl-4,4′-diol] |  |  | < 1000 nM
26 | Nc1nc(Nc2ccc(Cl)cc2)cc(-c2cc(-c3ccc(O)cc3)ccc2O)n1 [Example 110, 3-[2-Amino-6-(4-chloro-phenylamino)-pyrimidin-4-yl]-biphenyl-4,4′-diol] |  |  | < 1000 nM
27 | COc1cccc(Nc2cc(-c3cc(-c4ccc(O)cc4)ccc3O)nc(N)n2)c1 [Example 111, 3-[2-Amino-6-(3-methoxy-phenylamino)-pyrimidin-4-yl]-biphenyl-4,4′-diol] |  |  | < 1000 nM
28 | Nc1nc(N[C@@H](CO)c2ccccc2)cc(-c2cc(-c3ccc(O)cc3)ccc2O)n1 [Example 112, 3-[2-Amino-6-(2-hydroxy-1-phenyl-ethylamino)-pyrimidin-4-yl]-biphenyl-4,4′-diol] |  |  | < 1000 nM
29 | Nc1nc(-c2ccsc2)cc(-c2cc(-c3ccc(O)cc3)ccc2O)n1 [Example 113, 3-(2-Amino-6-thiophen-3-yl-pyrimidin-4-yl)-biphenyl-4,4′-diol] |  |  | 1000 to 20000 nM
30 | Nc1nc(-c2ccc3[nH]ccc3c2)cc(-c2cc(-c3ccc(O)cc3)ccc2O)n1 [Example 114] |  |  | < 1000 nM
31 | Nc1nc(NCc2cccc(F)c2)cc(-c2cc(-c3ccc(O)cc3)ccc2O)n1 [Example 115, 3-[2-Amino-6-(3-fluoro-benzylamino)-pyrimidin-4-yl]-biphenyl-4,4′-diol] |  |  | 1000 to 20000 nM
32 | Nc1nc(NCc2ccccc2F)cc(-c2cc(-c3ccc(O)cc3)ccc2O)n1 [Example 116] |  |  | < 1000 nM
33 | COc1cccc(CNc2cc(-c3cc(-c4ccc(O)cc4)ccc3O)nc(N)n2)c1 [Example 117, 3-[2-Amino-6-(3-methoxy-benzylamino)-pyrimidin-4-yl]-biphenyl-4,4′-diol] |  |  | < 1000 nM
34 | COc1ccc(CNc2cc(-c3cc(-c4ccc(O)cc4)ccc3O)nc(N)n2)cc1 [Example 118, 3-[2-Amino-6-(4-methoxy-benzylamino)-pyrimidin-4-yl]-biphenyl-4,4′-diol] |  |  | < 1000 nM
35 | Nc1nc(Nc2ccc(O)cc2F)cc(-c2cc(-c3ccc(O)cc3)ccc2O)n1 [Example 119, 3-[2-Amino-6-(2-fluoro-4-hydroxyphenylamino)-pyrimidin-4-yl]-biphenyl-4,4′-diol] |  |  | 1000 to 20000 nM
